Laboratory results from patent US20240082118A1, “TOPICAL COMPOSITIONS AND METHODS OF PREPARING THE SAME” (LANDA LABS (2012) LTD., priority 2021, published 2024).

Tested on: skin of pigs' ears
Assay: Ex vivo penetration of fluorescently marked nano-elements into pig ear skin
Format: in vitro ADME
Conditions: marker in water, or in water with the surfactants of Composition 2.21
Procedure: The distribution of nano-elements of the present compositions in various skin layers was tested ex vivo by applying onto the skin of pigs' ears nano-elements including a fluorescent dye (Nile red) allowing histological monitoring of their presence within the layers of the tissue onto which they were applied.
Tested composition (2) was prepared by adding 2 mg of Nile red fluorescent marker during the preparation of the CSSC premix, as described in Example 2.
The compositions were tested on two freshly harvested pig ears, collected on the same day, and kept fresh and cooled till use. The ears were washed with excess saline solution and wiped dry. They were then immobilized for the duration of the study by taping them onto a glass surface, their inner side facing down. Each ear was marked on its outer side with 6 circles having a diameter of about 1 cm.
25 microliters of each one of the samples were applied onto the skin near the center of the marked circle, each tested composition being applied in two or more separate circles for repeats. The ears with the applied test samples were then placed in an oven for an incubation time of 20 hours at a temperature of 32° C., to simulate the pigs' body temperature. […]
The tissue sections were evaluated by an expert for the presence and intensity of the marker using a fluorescence microscope at objective magnification of ×10. […]

penetration of the fluorescent marker into skin without nano-elements: No penetration
SMILES: CCN(CC)c1ccc2nc3c4ccccc4c(=O)cc-3oc2c1 [Nile red, 9-(diethylamino)-5H-benzo[a]phenoxazin-5-one]
